How the values were obtained:
[1] = tested on: primary hippocampal neurons; assay: Neurite outgrowth by immunocytochemistry; assay type: cell-based, Sprague-Dawley rats
Description: The primary hippocampal culture was prepared as described previously. To culture embryonic hippocampal primary neurons, pregnant Sprague-Dawley rats were purchased from the National Laboratory Center in Taiwan. The hippocampal tissue from the embryos of the Sprague-Dawley rats (E19) was dissociated with 100 U/mL of papain (Sigma-Aldrich) and plated onto poly-L-lysine-coated coverslips at a density of 1 × 10^4 cells/cm^2 with a minimal essential medium containing 5% calf serum, 5% horse serum, and 50 ng/mL insulin-transferrin-selenite (Sigma-Aldrich). Three hours after plating, the medium was replaced with 2% of a B27-neurobasal medium (Invitrogen, Carlsbad, CA, USA) containing 0.5 mM glutamine and 12.5 μM glutamate.
Supplemental Materials and Methods
2.1. HEK293T cells. HEK293T cells were maintained in Dulbecco’s modified Eagle’s medium (Invitrogen) supplemented with 10% fetal calf serum (Invitrogen). Cultures were maintained in a humidified 5% CO2-95% air atmosphere at 37°C.
2.2. Immunocytochemistry. Cultured hippocampal neurons were fixed with 4% paraformaldehyde for 15 min and permeablized with 0.1% Triton X-100 for 20 min at room temperature (RT). The primary Mouse anti-β III tubulin and anti-actin (Millipore) Abs were added for 1 h at RT. […]
The lysate was resolved by 8% SDS-PAGE. […] The protein bands were quantified using the NIH Image J Software. […]

naïve rats = assay: Passive one-way inhibitory avoidance learning, naïve rats; assay type: in vivo, Sprague-Dawley rats; conditions: 5 mg/kg/d i.p., 1 day and 7 days after footshock
Description: SAHA was supplied by NatureWise Biotech and Medicals Corporation (Taipei, Taiwan). […] (St. Louis, MO, USA). The BMX and SAHA stock (100 mg/mL) was dissolved in DMSO and diluted with saline to a final concentration of 0.5 mg/mL (in 0.5% DMSO/saline). […] SD rats were randomly divided into 3 groups. For the naïve animal experiments, the BMX-injected or SAHA-injected groups were injected with BMX (5 mg/kg/d) or SAHA (5 mg/kg/d) intraperitoneally 7 d prior to behavioral experiments and during the experimentation. The control group received the 0.5% DMSO/saline injection. The injection volume was 10 μL/g of body weight. The injections were performed once per day. For the amnesia experiment, the protocol was adopted from previous studies with modifications. […] The control group received the 0.5% DMSO/saline injection. The injection volume was 10 μL/g of body weight. […] The apparatus consisted of a trough-shaped alley divided by a sliding door that separates an illuminated safety compartment and a dark compartment. A shock generator that produced current was connected to the floor of the dark compartment (UGO Basile, Comerio (VA), Italy). The method used was adopted from that of previous studies with modifications. The behavioral task, including the training and testing procedures, was recorded between 8:00 AM and 6:00 PM. […]

[2] = tested on: histone 4 lysine 12 acetylation (AcH4K12); assay: Western blot of histone 4 lysine 12 acetylation in brain tissue after behavioural tests; assay type: in vivo, Sprague-Dawley rats; conditions: 5 mg/kg/d i.p.
Description: The hippocampus tissue and primary hippocampal cells were lysed and sonicated in an RIPA buffer (50 mM Tris-HCl (pH 7.4), 150 mM NaCl, 2 mM EDTA, 1% IGEPAL CA-630, 1 mM phenylmethylsulfonyl fluoride (PMSF), 20 μg/mL pepstatin A, 20 μg/mL leupeptin, 20 μg/mL aprotinin, 50 mM NaF, and 1 mM Na3VO4). The protocol was performed as described previously. The lysate was resolved by 8% SDS-PAGE. The proteins resolved by SDS-PAGE were transferred to the PVDF membrane (Millipore, Bedford, MA, USA) and western blotting was conducted with the following antibodies: rabbit anti-acetyl histone 4 lysine 12 and mouse anti-histone 4 (Cell signaling, Danvers, MA, USA). The secondary antibodies used include the HRP-conjugated goat-anti-rabbit IgG antibody and HRP-conjugated goat-anti-mouse IgG antibody (Millipore). The membrane was developed by reacting with a chemiluminescent HRP substrate (Millipore) and exposure to X-ray film. The protein bands were quantified using the NIH Image J Software.

Compound: O=C(CCCCCCC(=O)Nc1ccccc1)NO [SAHA, suberoylanilide hydroxamic acid, reference compound]
- neurite branch and neurite length [1]: increased the neurite length in particular
- retention time in the illuminated chamber (naïve rats): No difference in retention performance
- H4K12 acetylation in amygdala ([2]; 7 days after footshock): showed the highest H4K12 acetylation
- H4K12 acetylation in hippocampus ([2]; after novel object recognition task): showed the highest H4K12 acetylation
- H4K12 acetylation in hippocampus ([2]; after water-maze experiment): showed the highest H4K12 acetylation
